According to US20240368123A1, “AROMATIC RING-CONTAINING BIOLOGICAL ANTAGONIST, AND PREPARATION METHOD THEREFOR AND USE THEREOF” (SHANGHAI HANSOH BIOMEDICAL CO., LTD., priority 2021, published 2024):
Each block holds one compound with its values, some of them ahead of it.

Tests used:
[1] = target: T1, AT1 receptors (Homo sapiens, UniProt P30556); experiment: Effect on calcium current in cells stably expressing AT1 receptors (FLIPR, antagonist mode); format: cell-based; details: HEK293-AT1 cells, Fluo-8 AM, FLIPR Tetra; read-out: IC50 values of compounds on calcium current in cells stably expressing AT1 receptors
T1 construct: host or cells: HEK293
T1 sequence (P30556 1-359): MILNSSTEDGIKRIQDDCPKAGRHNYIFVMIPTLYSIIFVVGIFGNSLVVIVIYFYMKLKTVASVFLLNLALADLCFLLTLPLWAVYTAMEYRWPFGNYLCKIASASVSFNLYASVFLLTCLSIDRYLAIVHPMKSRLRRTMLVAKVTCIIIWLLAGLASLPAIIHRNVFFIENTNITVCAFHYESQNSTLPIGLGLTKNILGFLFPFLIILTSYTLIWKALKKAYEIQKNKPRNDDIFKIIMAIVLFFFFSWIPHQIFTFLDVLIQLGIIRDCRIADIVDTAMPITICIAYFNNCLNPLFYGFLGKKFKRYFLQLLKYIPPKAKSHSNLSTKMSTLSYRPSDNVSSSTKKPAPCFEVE
Text: Test Example 1. Determination of the Effect of the Compounds of the Present Invention on Calcium Current in Cells Stably Expressing AT1 Receptors
Antagonistic effect of test compounds on HEK293-AT1 cell activity
• DMEM, high glucose (Gibco: 12100); • Fetal bovine serum (Biosera: FB-1058/500); • P/S (Biosera: XC-A4122); • 5× Matrigel (Corning: 354230); • HBSS (Sigma: H1387); • HEPES (Invitrogen: 15630080); • Fluo-8 AM (AAT Bioquest: 21080); • Probenecid (Sigma: P8761); • Pluronic F-127 (Sigma: P2443-250G); • Angiotensin III TFA (MCE: HY-113035A); • Irbesartan (MCE: HY—B0202); • 1000× Fluo-8 AM (2 mM): Fluo-8 AM was dissolved in DMSO, the mixture was shaken for 1-2 min, sub-packaged and stored at −20° C.; • Complete culture medium: DMEM+10% FBS+1×P/S; • Cell seeding medium: DMEM+10% FBS+1×PS; • Experimental buffer 1: 1×HBSS+20 mM HEPES+1 mM Probenecid+0.025% Pluronic F-127; • Experimental buffer 2: 1×HBSS+20 mM HEPES+0.075% Pluronic F-127; • 1× Matrigel: 5× Matrigel was diluted with DMEM; • Cell line: HDB HEK293-AT1.
• 1) HEK293-AT1 cell line was cultured in complete culture medium at 37° C., 5% CO2 to 70%-90% confluence. • 2) the 384-well cell plate was coated with 1× Matrigel with 5 μL/well at room temperature for 10 to 30 min. • 3) the cells were digested and resuspended in cell seeding medium, inoculation was performed at 8,000 cells/well/20 μL in a 384-well cell culture plate, and the cells were cultured at 37° C., 5% CO2 for 24 h. • 4) the cell culture plate was taken out of the CO2 incubator and equilibrated at room temperature for 10 min. • 5) 1000× Fluo-8 AM was taken and diluted to 1× Fluo-8 AM with experimental buffer 1 that has been equilibrated to room temperature, with a concentration of 2 μM. • 6) the culture medium was removed from the cell culture plate, 20 μL of 1× Fluo-8 AM was added to each well, the mixture was centrifuged at 300 rpm for 60 seconds at room temperature, and incubated at room temperature in the dark for 1 h. • 7) positive control compound and test compound working solution (3×) were formulated: • (1) instrument Bravo was used to dilute the compound to 11 concentration points on the 384-well Echo compound plate (LABCYTE: LP-0200); • (2) instrument ECHO was used to transfer 90 nL of compound per well (compound storage concentration, such as the highest concentration point 10 mM) to the 384-well compound plate (PE: 6008590); • (3) Multidrop Combi was used to add 30 μL of experimental buffer 2 to the 384-well compound plate (PE: 6008590), the positive control compound and test compound were diluted to 30 μM (3×), and placed at room temperature until use. • 8) FLIPR Tetra was used to add 10 μL of diluted 3× compound into the experimental well of the corresponding 384-well cell plate, the compound and cells were incubated for 10 min at room temperature, then 10 μL of diluted 4× agonist was added, and the data was read and collected at the same time.
FLIPR Tetra was used to read and collect the fluorescence signal value (RFU). The maximum RFU value was used to calculate the percent activation data based on the readings of the Low control (DMSO control) and High control (100 nM positive compound) experimental groups {% activation rate=(RFUsample−RFUlow control)/(RFUhigh control−RFUlow control)×100}. The concentration of the test compound was 11 concentrations after diluting the reaction system 3 times, ranging from 10 uM to 0.17 nM.

[2] = Liver microsomal metabolism stability test, rat; format: in vitro ADME; details: rat liver microsomes, 60 min
Method: (§1) The purpose of this experiment was to detect the stability of the example compounds in liver microsomes of rats, dogs and humans.
(§2) • Formulation of working solution of compounds: compound stock solution was added to phosphate buffer to a final concentration of 20 μM.
(§3) Dilution was performed with 100 mM phosphate buffer to a final concentration of 0.625 mg/mL.
(§4) NADPH (reduced nicotinamide adenine dinucleotide phosphate) and UDPGA (uridine diphosphate glucuronic acid) were weighed, 100 mM phosphate buffer was added, and the final concentration was 20 mM.
(§5) 1 mg of Alamethicin was weighed, and 200 μL of DMSO was added to formulate a 5 mg/mL solution. Then dilution was performed with phosphate buffer to a final concentration of 50 μg/mL.
(§6) Stop solution: the stop solution contains 100 ng/mL labetalol hydrochloride and 400 ng/mL tolbutamide and cold acetonitrile as internal standard.
(§7) 400 μL of formulated liver microsomes, 25 μL of compound working solution and 25 μL of Alamethicin were added in sequence to the 96-well plate, and pre-incubated at 37° C. for 10 min. Then 50 μL of formulated NADPH/UDPGA was added to start the reaction and the mixture was incubated at 37° C. The total volume of the reaction system was 500 μL. The final contents of each component are as follows:
(§8) • Instrument: Shimadzu LC-30 AD; • Chromatographic column: XBridge® C18 (50*4.6 mm, 5 μm particle size); • Mobile phase: A: 0.1% formic acid solution, B: methanol Wash gradient: 0.2-1.6 min 5% A to 95% A, 3.0-3.1 min 95% A to 5% A Run time: 4.0 min.
(§9) • Instrument: API5500 liquid chromatography mass spectrometer, AB Sciex; • Ion source: electrospray ionization source (ESI); • Drying gas: N2, temperature 500° C.; • Electrospray voltage: 5000 V; • Detection mode: positive ion detection; • Scanning mode: reaction monitoring (MRM) mode.

[3] = Liver microsomal metabolism stability test, dog; format: in vitro ADME; details: dog liver microsomes, 60 min
Method: as §1, §2, §3, §4, §5, §6, §7, §8, §9

[4] = Liver microsomal metabolism stability test, human; format: in vitro ADME; details: human liver microsomes, 60 min
Method: as §1, §2, §3, §4, §5, §6, §7, §8, §9

[5] = tested on: spontaneously hypertensive rat (SHR) model; experiment: Pharmacodynamic evaluation on blood pressure in spontaneously hypertensive rats; format: in vivo; details: P.O, 30 mpk, 1-8 h after administration, P<0.05
Text: This experiment used a spontaneously hypertensive rat (SHR) model to evaluate the pharmacodynamic effect of the test compounds on the blood pressure and heart rate of the model.
Kent Scientific CODA non-invasive blood pressure system.
Spontaneously hypertensive rats (SHR) were provided by Beijing Vital River Laboratory Animal Technology Co., Ltd., male, 150-200 g, 13-15 weeks old, 50 rats.
After animals arrived at the experimental facility, the animals were adapted to the animal facility for 5-7 days. 4.2 After the adaptation period, the animals were adapted to the tail oversleeve restrain for 3 days, and the tail oversleeve restrain was performed twice a day. After the last restrain adaptation, the basal blood pressure was measured, and the animals were randomly divided into groups according to the basal blood pressure. There was no significant difference between the average systolic blood pressure of animals in each group, and the number of animals in each group met the requirements of statistical testing and pharmacodynamic guidelines. 4.3 On the second day after grouping, the animals were administered according to experimental design and grouping (P.O, 5 mL/kg), and the systolic blood pressure (SBP), diastolic blood pressure (DBP), mean arterial pressure (MAP) and heart rate (HR) of the animals were measured before administration and at 1, 2, 4, 6, 8 and 24 h after administration using tail oversleeve method.
Statistical differences between groups were analyzed by Two-way ANOVA test. Among them, P<0.05 indicated a significant difference, and P<0.01 indicated an extremely significant difference.

[6] = Rat pharmacokinetic evaluation test, oral administration; format: in vivo; details: male, SD rats, p.o. 5 mg/kg, plasma
Method: SD rats were used as test animals to study the pharmacokinetic behavior of the compounds of the present invention in the rat body (plasma) after oral administration at a dose of 5 mg/kg.
3 SD rats/group, male, from Shanghai Jiesijie Experimental Animal Co., Ltd., animal production license number (SCXK (Shanghai) 2013-0006 N0.311620400001794).
• 0.5% CMC-Na (1% Tween80) was dissolved with ultrasound, and formulated into a clear solution or homogeneous suspension.
• p.o. respectively after the rats were fasted overnight; • the p.o. dose was 5 mg/kg and the administration volume was 10 mL/kg.
After oral administration of rats, 0.2 mL of blood was collected from the jugular vein at 0.25 h, 0.5 h, 1.0 h, 2.0 h, and 4.0 h, placed in an EDTA-2K test tube, centrifuged at 6000 rpm for 6 min at 4° C. to separate plasma which was stored at −80° C.; the rats can eat 4 h after administration.
• 1) 160 μL of acetonitrile was added to 40 μL of plasma sample for precipitation, mixed and centrifuged at 3500×g for 5 to 20 min. • 2) the treated supernatant solution was taken and subjected to LC/MS/MS to analyze the concentrations of the test compounds. LC/MS/MS analysis instrument: AB Sciex API 4000 Qtrap.
• Liquid phase conditions: Shimadzu LC-20AD pump • chromatographic column: AgilentZORBAX XDB-C18 (50×2.1 mm, 3.5 μm) mobile phase: liquid A was 0.1% aqueous formic acid solution, liquid B was acetonitrile • flow rate: 0.4 mL/min • Elution time: 0-4.0 min, the eluent was as follows:
The main pharmacokinetic parameters were calculated using WinNonlin 6.1.

SMILES: CCCCC1=NC2(CCCC2)C(=O)N1Cc1ccc(-c2ccccc2S(=O)(=O)Nc2noc(C)c2Cl)c(COC(C)C)c1 [Example 72, 4′-((2-butyl-4-oxo-1,3-diazaspiro[4.4]non-1-en-3-yl)methyl)-N-(4-chloro-5-methylisoxazol-3-yl)-2′-(isopropoxymethyl)-[1,1′-biphenyl]-2-sulfonamide]
IC50 [1]: 6.1 nM

SMILES: CCCCC1=NC2(CCCC2)C(=O)N1Cc1ccc(-c2ccccc2S(=O)(=O)Nc2noc(C)c2Cl)c(COCC)c1 [Example 45, 2-[4-[(2-butyl-4-oxo-1,3-diazaspiro[4.4]non-1-en-3-yl)methyl]-2-(ethoxymethyl)phenyl]-N-(4-chloro-5-methyl-isoxazol-3-yl)benzsulfamide]
Remaining rate [2]: 23.3% | Remaining rate [3]: 23.6% | Remaining rate [4]: 32.0% | blood pressure (systolic blood pressure, diastolic blood pressure, mean arterial pressure) compared with the vehicle group [5]: significantly reduced blood pressure

SMILES: CCCCC1=NC2(CCCC2)C(=O)N1Cc1ccc(-c2ccccc2S(=O)(=O)Nc2noc(C)c2Cl)c(OCCC)c1 [Example 55, 4′-((2-butyl-4-oxo-1,3-diazaspiro[4.4]non-1-en-3-yl)methyl)-N-(4-chloro-5-methylisoxazol-3-yl)-2′-propoxy-[1,1′-biphenyl]-2-sulfonamide]
IC50 [1]: 3.7 nM

SMILES: CCCCC1=NC2(CCCC2)C(=O)N1Cc1ccc(-c2ccccc2S(=O)(=O)Nc2noc(C)c2Cl)c(COC)c1 [Example 53, 4′-((2-butyl-4-oxo-1,3-diazaspiro[4.4]non-1-en-3-yl)methyl)-N-(4-chloro-5-methylisoxazol-3-yl)-2′-(methoxymethyl)-[1,1′-biphenyl]-2-sulfonamide]
IC50 [1]: 9.1 nM

SMILES: CCCCC1=NC2(CCCC2)C(=O)N1Cc1ccc(-c2ccccc2S(=O)(=O)Nc2noc(C)c2C)c(COC2CC2)c1 [Example 13, 4′-((2-butyl-4-oxo-1,3-diazaspiro[4.4]non-1-en-3-yl)methyl)-2′-(cyclopropoxymethyl)-N-(4,5-dimethylisoxazol-3-yl)-[1,1′-biphenyl]-2-sulfonamide]
IC50 [1]: 10 nM

More lines, now with the values ahead:

IC50 [1]: 5.2 nM
SMILES: CCCCC1=NC2(CCCC2)C(=O)N1Cc1ccc(-c2ccccc2S(=O)(=O)Nc2noc(C)c2Cl)c(COCC2CC2)c1 [Example 85, 4′-((2-butyl-4-oxo-1,3-diazospiro[4.4]non-1-en-3-yl)methyl)-N-(4-chloro-5-methylisoxazol-3-yl)-2′-((cyclopropylmethoxy)methyl)-[1,1′-biphenyl]-2-sulfonamide]

IC50 [1]: 8.6 nM
SMILES: CCCCC1=NC2(CCCC2)C(=O)N1Cc1ccc(-c2ccccc2S(=O)(=O)Nc2noc(C)c2Cl)c(COC2CC2)c1 [Example 52, 4′-((2-butyl-4-oxo-1,3-diazaspiro[4.4]non-1-en-3-yl)methyl)-N-(4-chloro-5-methylisoxazol-3-yl)-2′-(cyclopropoxymethyl)-[1,1′-biphenyl]-2-sulfonamide]

IC50 [1]: 6.9 nM | AUC(0-inf) [6]: 11300 ng·h/mL | Cmax [6]: 2320 ng/mL | Tmax [6]: 0.5 h | MRT inf ([6]; read-out: MRT0-∞): 5.3 h
SMILES: CCCCC1=NC2(CCCC2)C(=O)N1Cc1ccc(-c2ccccc2S(=O)(=O)Nc2noc(C)c2C)c(COCC2CC2)c1 [Example 14, 4′-((2-butyl-4-oxo-1,3-diazaspiro[4.4]non-1-en-3-yl)methyl)-2′-((cyclopropylmethoxy)methyl)-N-(4,5-dimethylisoxazol-3-yl)-[1,1′-biphenyl]-2-sulfonamide]
